Source: US20250231185A1, “Coronavirus T Cell Epitopes, Megapools and Uses Thereof” (La Jolla Institute for Immunology, priority 2021, published 2025)

Key:
CD8+ T cells [1] = settings: T cell type (CD4 or CD8) recognizing the SARS-CoV-2 epitope; cited from earlier work
CD8+ T cells [2] = experiment: Meta-analysis of published SARS-CoV-2 CD8 T cell epitope data curated in the IEDB (25 studies); assay type: cell-based, human
[3] = SARS-CoV-2-derived CD8 epitopes, dominant = recognized by 3 or more donors/different studies
[4] = CD8S (D) Megapool, antigen S, dominant = recognized in 3 or more donors/studies

Substance	Restriction (CD8+ T cells [1])	Dominant (CD8+ T cells [2]; [3])	Dominant (CD8+ T cells [2]; [4])
901 (NTCDGTTFTY) [compound 901]	CD8	Yes (more dominant epitopes are defined by being recognized by 3 or more donors/different studies)	
903 (FTYASALWEI) [compound 903]	CD8	Yes (more dominant epitopes are defined by being recognized by 3 or more donors/different studies)	
905 (ALWEIQQV) [compound 905]	CD8	Yes (more dominant epitopes are defined by being recognized by 3 or more donors/different studies)	
909 (ALRANSAVK) [compound 909]	CD8	Yes (more dominant epitopes are defined by being recognized by 3 or more donors/different studies)	
910 (CTDDNALAYY) [compound 910]	CD8	Yes (more dominant epitopes are defined by being recognized by 3 or more donors/different studies)	
913 (YTELEPPCRF) [compound 913]	CD8	Yes (more dominant epitopes are defined by being recognized by 3 or more donors/different studies)	
914 (VTDTPKGPK) [compound 914]	CD8	Yes (more dominant epitopes are defined by being recognized by 3 or more donors/different studies)	
920 (TVLSFCAFAV) [compound 920]	CD8	Yes (more dominant epitopes are defined by being recognized by 3 or more donors/different studies)	
922 (DLKGKYVQI) [compound 922]	CD8	Yes (more dominant epitopes are defined by being recognized by 3 or more donors/different studies)	
930 (YTMADLVYAL) [compound 930]	CD8	Yes (more dominant epitopes are defined by being recognized by 3 or more donors/different studies)	
931 (TMADLVYAL) [compound 931]	CD8	Yes (more dominant epitopes are defined by being recognized by 3 or more donors/different studies)	
939 (LLMPILTLT) [compound 939]	CD8	Yes (more dominant epitopes are defined by being recognized by 3 or more donors/different studies)	
943 (KLFDRYFKY) [compound 943]	CD8	Yes (more dominant epitopes are defined by being recognized by 3 or more donors/different studies)	
951 (FVDGVPFVV) [compound 951]	CD8	Yes (more dominant epitopes are defined by being recognized by 3 or more donors/different studies)	
961 (ISDYDYYRY) [compound 961]	CD8	Yes (more dominant epitopes are defined by being recognized by 3 or more donors/different studies)	
964 (RQLLFVVEV) [compound 964]	CD8	Yes (more dominant epitopes are defined by being recognized by 3 or more donors/different studies)	
966 (VVDKYFDCY) [compound 966]	CD8	Yes (more dominant epitopes are defined by being recognized by 3 or more donors/different studies)	
970 (RLYYDSMSY) [compound 970]	CD8	Yes (more dominant epitopes are defined by being recognized by 3 or more donors/different studies)	
989 (MVMCGGSLYV) [compound 989]	CD8	Yes (more dominant epitopes are defined by being recognized by 3 or more donors/different studies)	
992 (DTDFVNEFY) [compound 992]	CD8	Yes (more dominant epitopes are defined by being recognized by 3 or more donors/different studies)	

Substance	Restriction (CD8+ T cells [1])	Dominant (CD8+ T cells [2]; [3])	Dominant (CD8+ T cells [2]; [4])
995 (FYAYLRKHF) [compound 995]	CD8	Yes (more dominant epitopes are defined by being recognized by 3 or more donors/different studies)	
1008 (RILGAGCFV) [compound 1008]	CD8	Yes (more dominant epitopes are defined by being recognized by 3 or more donors/different studies)	
1012 (LYLQYIRKL) [compound 1012]	CD8	Yes (more dominant epitopes are defined by being recognized by 3 or more donors/different studies)	
1019 (VLQAVGACV) [compound 1019]	CD8	Yes (more dominant epitopes are defined by being recognized by 3 or more donors/different studies)	
1020 (LVLSVNPYV) [compound 1020]	CD8	Yes (more dominant epitopes are defined by being recognized by 3 or more donors/different studies)	
1025 (VVYRGTTTYK) [compound 1025]	CD8	Yes (more dominant epitopes are defined by being recognized by 3 or more donors/different studies)	
1026 (VVYRGTTTY) [compound 1026]	CD8	Yes (more dominant epitopes are defined by being recognized by 3 or more donors/different studies)	
1027 (VYRGTTTYKL) [compound 1027]	CD8	Yes (more dominant epitopes are defined by being recognized by 3 or more donors/different studies)	
1029 (KLNVGDYFV) [compound 1029]	CD8	Yes (more dominant epitopes are defined by being recognized by 3 or more donors/different studies)	
1033 (SSNVANYQK) [compound 1033]	CD8	Yes (more dominant epitopes are defined by being recognized by 3 or more donors/different studies)	
1041 (VYIGDPAQL) [compound 1041]	CD8	Yes (more dominant epitopes are defined by being recognized by 3 or more donors/different studies)	
1042 (IVDTVSALV) [compound 1042]	CD8	Yes (more dominant epitopes are defined by being recognized by 3 or more donors/different studies)	
1052 (VLWAHGFEL) [compound 1052]	CD8	Yes (more dominant epitopes are defined by being recognized by 3 or more donors/different studies)	
1053 (TYACWHHSI) [compound 1053]	CD8	Yes (more dominant epitopes are defined by being recognized by 3 or more donors/different studies)	
1055 (AIMTRCLAV) [compound 1055]	CD8	Yes (more dominant epitopes are defined by being recognized by 3 or more donors/different studies)	
1056 (IEYPIIGDEL) [compound 1056]	CD8	Yes (more dominant epitopes are defined by being recognized by 3 or more donors/different studies)	
1496 (VASQSIIAY) [compound 1496]			Yes (more dominant epitopes are defined by being recognized by 3 or more donors/different studies)
1497 (SIIAYTMSL) [compound 1497]			Yes (more dominant epitopes are defined by being recognized by 3 or more donors/different studies)
1498 (FTISVTTEIL) [compound 1498]			Yes (more dominant epitopes are defined by being recognized by 3 or more donors/different studies)
1499 (TEILPVSMTK) [compound 1499]			Yes (more dominant epitopes are defined by being recognized by 3 or more donors/different studies)

Substance	Restriction (CD8+ T cells [1])	Dominant (CD8+ T cells [2]; [3])	Dominant (CD8+ T cells [2]; [4])
1500 (TECSNLLLQY) [compound 1500]			Yes (more dominant epitopes are defined by being recognized by 3 or more donors/different studies)
1501 (LLQYGSFCT) [compound 1501]			Yes (more dominant epitopes are defined by being recognized by 3 or more donors/different studies)
1502 (LLFNKVTLA) [compound 1502]			Yes (more dominant epitopes are defined by being recognized by 3 or more donors/different studies)
1503 (LTDEMIAQY) [compound 1503]			Yes (more dominant epitopes are defined by being recognized by 3 or more donors/different studies)
1504 (MIAQYTSAL) [compound 1504]			Yes (more dominant epitopes are defined by being recognized by 3 or more donors/different studies)
1506 (TQNVLYENQK) [compound 1506]			Yes (more dominant epitopes are defined by being recognized by 3 or more donors/different studies)
1507 (NQKLIANQF) [compound 1507]			Yes (more dominant epitopes are defined by being recognized by 3 or more donors/different studies)
1508 (VLNDILSRL) [compound 1508]			Yes (more dominant epitopes are defined by being recognized by 3 or more donors/different studies)
1511 (YHLMSFPQSA) [compound 1511]			Yes (more dominant epitopes are defined by being recognized by 3 or more donors/different studies)
1512 (HLMSFPQSA) [compound 1512]			Yes (more dominant epitopes are defined by being recognized by 3 or more donors/different studies)
1513 (APHGVVFLHV) [compound 1513]			Yes (more dominant epitopes are defined by being recognized by 3 or more donors/different studies)
1514 (VVFLHVTYV) [compound 1514]			Yes (more dominant epitopes are defined by being recognized by 3 or more donors/different studies)
1515 (GTHWFVTQR) [compound 1515]			Yes (more dominant epitopes are defined by being recognized by 3 or more donors/different studies)
1516 (RLNEVAKNL) [compound 1516]			Yes (more dominant epitopes are defined by being recognized by 3 or more donors/different studies)
1517 (NLNESLIDL) [compound 1517]			Yes (more dominant epitopes are defined by being recognized by 3 or more donors/different studies)
1518 (QYIKWPWYI) [compound 1518]			Yes (more dominant epitopes are defined by being recognized by 3 or more donors/different studies)
1519 (KWPWYIWLGF) [compound 1519]			Yes (more dominant epitopes are defined by being recognized by 3 or more donors/different studies)
1521 (SEPVLKGVKL) [compound 1521]			Yes (more dominant epitopes are defined by being recognized by 3 or more donors/different studies)
